Laboratory results taken from PubChem BioAssay AID651630 (Sanford-Burnham Center for Chemical Genomics, 2012).
The source made the active and inactive calls.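 The calls were made as follows: active = lipid-stain IC50 at or below a set limit, with nuclear-stain toxicity IC50 at least five times higher; inactive = the rest.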

Key:
DAPI = experiment: TAG lipid buildup inhibition with viability readout – cell-based, panel, Nile Red and DAPI fluorescence, H9c2, dose response (AID 651630); conditions: H9c2 cells, DAPI nuclear fluorescence (cytotoxicity counter-readout), oleic acid;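 also: cells exposed to compound overnight before fixation and staining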
TAG = experiment: as above; conditions: H9c2 cells, Nile Red TAG fluorescence, oleic acid

Row | Compound | IC50 cytotoxicity (DAPI nuclear signal decrease) (DAPI; mean of runs) | IC50 cytotoxicity (DAPI nuclear signal decrease) (DAPI; run 1) | IC50 cytotoxicity (DAPI nuclear signal decrease) (DAPI; run 2) | IC50 (TAG; mean of runs) | IC50 (TAG; run 1) | IC50 (TAG; run 2)
1 | CCCCCc1cc(=O)oc2c(C(CCN3CCN(c4ccccc4)CC3)c3ccc4c(c3)OCO4)c(OC)cc(OC)c12 (stereo not drawn) | > 25 µM (inactive) | > 25 µM | > 25 µM | 8.04 µM | 8.42 µM | 7.65 µM
2 | C[C@@H]1CN([C@@H](C)CO)C(=O)c2cccc(NC(=O)Nc3ccc(F)cc3)c2O[C@@H]1CN(C)Cc1ccc(Oc2ccccc2)cc1 |  | > 25 µM | > 25 µM | 1.42 µM | 1.71 µM | 1.14 µM
3 | COCCNC(=O)c1cc2c(-c3ccc(Cl)cc3)nn(C)c2s1 | > 25 µM (inactive) | > 25 µM | > 25 µM | > 25 µM (inactive) | > 25 µM | > 25 µM
4 | COc1cc2c(c(OC)c1OC)-c1ccc(SC)c(=O)cc1C(NC=O)CC2 (stereo not drawn) | > 25 µM (inactive) | > 25 µM | > 25 µM | > 25 µM (inactive) | > 25 µM | > 25 µM
5 | Cc1ccc2[nH]c(-c3ccccc3)cc(=O)c2c1 | > 25 µM (inactive) | > 25 µM | > 25 µM | > 25 µM (inactive) | > 25 µM | > 25 µM
6 | CC(=O)Nc1ccc(NC2=Nc3ccccc3N3C2=Nc2c(c(C)nn2-c2ccccc2)C3c2ccccc2)cc1 (stereo not drawn) | > 25 µM (inactive) | > 25 µM | > 25 µM | > 25 µM (inactive) | > 25 µM | > 25 µM
7 | Cn1cc(CN2CCC(C(=O)NC(c3ccc(F)cc3)c3ccc4ccccc4n3)CC2)c2ccccc21 (stereo not drawn) | 13.7 µM (inactive) | 14.5 µM | 13 µM | 10.3 µM | 9.38 µM | 11.2 µM
8 | Cc1onc(-c2ccccc2)c1C(=O)Nc1cc(C(F)(F)F)ccc1N1CCOCC1 | > 25 µM (inactive) | > 25 µM | > 25 µM | 20.1 µM (inactive) | 15.4 µM | 24.8 µM
9 | Cc1nc(N/N=C/c2cccc(F)c2)cc(N2CCOCC2)n1 | > 25 µM (inactive) | > 25 µM | > 25 µM | 13.8 µM | 10.9 µM | 16.6 µM
10 | CCC(=O)Nc1ccc(-c2nnc(-c3ccccc3)o2)cc1 | > 25 µM (inactive) | > 25 µM | > 25 µM | > 25 µM (inactive) | > 25 µM | > 25 µM
11 | CC1(C(=O)Nc2cccc(Oc3ccccc3)c2)Cc2c(-c3ccc4c(c3)OCO4)ccnc2O1 (stereo not drawn) | > 25 µM (inactive) | > 25 µM | > 25 µM | > 25 µM (inactive) | > 25 µM | > 25 µM
12 | O=C(CCC1CCCCC1)NCCN1C2=NC[C@@H](Cc3ccccc3)N2C[C@H]1Cc1ccc(O)cc1 | > 25 µM (inactive) | > 25 µM | > 25 µM | > 25 µM (inactive) | > 25 µM | > 25 µM
13 | CCOc1cc(CNC(C)(C)C)ccc1OCC(=O)Nc1cccc(C(F)(F)F)c1 | > 25 µM (inactive) | > 25 µM | > 25 µM | 16.3 µM (inactive) | 15.5 µM | 17.2 µM
14 | COc1ccc(-c2nc3ccc(Cl)cn3c2NC2CCCCC2)cc1SC1CCCCC1 |  | > 25 µM | > 25 µM | 3.44 µM | 2.41 µM | 4.47 µM
15 | CC(C)C[C@H]1C(=O)N2CCC[C@H]2[C@]2(O)O[C@](NC(=O)C3C=C4c5cccc6[nH]c(Br)c(c56)C[C@H]4N(C)C3)(C(C)C)C(=O)N12 (stereo partly drawn) | > 25 µM (inactive) | > 25 µM | > 25 µM | 6.4 µM | 5.42 µM | 7.37 µM
16 | CC(C)(C)NC(=O)C(c1ccc(-c2ccccc2)cc1)N(C[C@H]1CC[C@@H]([C@@H]2CC[C@H](CO)O2)O1)C(=O)c1ccc2ccccc2c1 (stereo partly drawn) | > 25 µM (inactive) | > 25 µM | > 25 µM | 5.56 µM | 4.96 µM | 6.16 µM

Row | Compound | IC50 cytotoxicity (DAPI nuclear signal decrease) (DAPI; mean of runs) | IC50 cytotoxicity (DAPI nuclear signal decrease) (DAPI; run 1) | IC50 cytotoxicity (DAPI nuclear signal decrease) (DAPI; run 2) | IC50 (TAG; mean of runs) | IC50 (TAG; run 1) | IC50 (TAG; run 2)
17 | COc1ccc(-c2cnnc(N/N=C/c3ccc(-c4ccc([N+](=O)[O-])cc4)o3)n2)cc1 | > 25 µM (inactive) | > 25 µM | > 25 µM | 11 µM | 11.6 µM | 10.4 µM
18 | Nc1ccccc1Nc1cccc(C(F)(F)F)c1 | > 25 µM (inactive) | > 25 µM | > 25 µM | 11.2 µM | 9.51 µM | 12.9 µM
19 | Nc1c(Cl)cc(-c2csc(N3CCCC3c3nc4cc(Cl)c(N5CCCCC5)cc4n3CCCO)n2)cc1Cl (stereo not drawn) | 15.6 µM (inactive) | 14.5 µM | 16.6 µM | 3.56 µM | 2.87 µM | 4.26 µM
20 | CC1(c2ccccc2)O[C@@H]2C[C@H]3[C@@H]4CCC5=CC(=O)C=C[C@]5(C)[C@@]4(F)[C@@H](O)C[C@]3(C)[C@]2(C(=O)CO)O1 (stereo partly drawn) | > 25 µM (inactive) | > 25 µM | > 25 µM | 13.9 µM | 13 µM | 14.7 µM
21 | Cc1ccccc1NC(=O)CSc1nc2ccc(Nc3nc(N4CCOCC4)nc(N4CCOCC4)n3)cc2s1 | > 25 µM (inactive) | > 25 µM | > 25 µM | 10.7 µM | 10.6 µM | 10.8 µM
22 | C=CC[C@@H](CC(=O)N(CCO)Cc1ccccc1)C(=O)N[C@H](COC(=O)[C@@H](CC=C)CC(=O)OC(C)(C)C)Cc1ccccc1 | > 25 µM (inactive) | > 25 µM | > 25 µM | 5.86 µM | 5.71 µM | 6.02 µM
23 | Cc1ccccc1NC(=O)CSc1nc(Nc2ccccc2)nc(N2CCOCC2)n1 | > 25 µM (inactive) | > 25 µM | > 25 µM | 12.9 µM | 15.7 µM | 10 µM
24 | C[C@@]12C(=O)Nc3ccc(Br)cc3C(=O)N1[C@H]1c3cc(Cl)ccc3OC[C@@H]1[C@@H]2c1ccccc1 | > 25 µM (inactive) | > 25 µM | > 25 µM | 14.6 µM | 9.4 µM | 19.8 µM
25 | Cc1ccc(-c2nn3c(C)nnc3c3ccccc23)cc1S(=O)(=O)NC(C)c1ccccc1 (stereo not drawn) | > 25 µM (inactive) | > 25 µM | > 25 µM | 19.7 µM (inactive) | 18.7 µM | 20.6 µM
26 | CCOc1ccc(NC(=O)c2ccc(NC(=O)CSc3nc4ccccc4c(=O)[nH]3)cc2)cc1 | > 25 µM (inactive) | > 25 µM | > 25 µM |  | 24.6 µM | > 25 µM
27 | O=C(N/N=C/c1cn(-c2ccccc2)nc1-c1cc2ccccc2o1)c1c[nH]c2ccccc12 | > 25 µM (inactive) | > 25 µM | > 25 µM | 13.1 µM | 14.7 µM | 11.5 µM
28 | Cc1cccc(N2CCN(C(=O)c3c(-c4ccccc4Cl)noc3C)CC2)c1C | > 25 µM (inactive) | > 25 µM | > 25 µM | 16.3 µM (inactive) | 16.5 µM | 16 µM
29 | COC(=O)[C@@]1(Cc2ccccc2)[C@H]2C(=O)N(Cc3ccccc3)C(=O)[C@H]2[C@H]2CN=C(SCc3ccc(Cl)cc3)N21 | > 25 µM (inactive) | > 25 µM | > 25 µM | 9.75 µM | 10.4 µM | 9.1 µM
30 | N/C(=N\c1nc2ccccc2o1)NC(=O)c1ccc(F)cc1 | > 25 µM (inactive) | > 25 µM | > 25 µM | > 25 µM (inactive) | > 25 µM | > 25 µM
31 | Cc1cc(N/N=C/c2ccc(F)cc2)nc(-n2nc(C)cc2C)n1 | > 25 µM (inactive) | > 25 µM | > 25 µM | > 25 µM (inactive) | > 25 µM | > 25 µM
32 | Cc1ccc(Cl)cc1NC(=S)N/N=C/c1cccc2ccccc12 | > 25 µM (inactive) | > 25 µM | > 25 µM |  | 19.9 µM | > 25 µM
